In paper PMC7108845, “An Alphaherpesvirus Exploits Antimicrobial β-Defensins To Initiate Respiratory Tract Infection” (Journal of Virology, 2020):

How the values were obtained:
EHV1 (isolate 03P37) = assay type: cell-based, equine herpesvirus type 1
[1] = system: equine arteritis virus (08P178); assay type: cell-based
[2] = system: Actinobacillus equuli subsp. equuli (4005); experiment: MIC assay, bacterial growth inhibition; assay type: cell-based; details: Gram-negative; Mueller-Hinton II broth, ~10^6 CFU/ml, 0 to 100 μg/ml eBD, 24 h, 37°C, 5% CO2; lowest concentration with no visible bacterial growth
Experimental: (§1) To ensure that eBD1, -2, and -3 are potent antimicrobial peptides, a MIC test was performed to determine inhibition of the growth of a number of Gram-positive and Gram-negative bacteria found in the equine respiratory tract by eBDs. The examined concentration range of eBDs ([…] to 100 μg/ml) was chosen based on the antimicrobially active concentration range of human BDs ([21][–][25]).
(§2) Clinical bacterial isolates were used in a MIC assay to investigate the sensitivity of bacterial pathogens from the equine respiratory tract to eBDs. The test organisms included the Gram-positive bacteria Streptococcus equi subsp. zooepidemicus (strain 4001), Streptococcus equi subsp. equi (strain 3830), Staphylococcus aureus (strain 3939), and Rhodococcus equi (strain 3851) and the Gram-negative bacteria Actinobacillus equuli subsp. equuli (strain 4005) and Bordetella bronchiseptica (strain 3033). All organisms were grown on Oxoid sheep blood agar plus plates (Thermo Fisher Scientific) overnight in a humidified incubator (5% CO2) at 37°C. Inocula were prepared by swabbing bacterial colonies from the plates, suspending them in PBS (turbidity equivalent to a 0.5 McFarland standard), and diluting this suspension 1:100 in Mueller-Hinton II (MH) broth (BD Biosciences, San Jose, CA, USA), achieving a final concentration of approximately 10^6 CFU/ml. eBDs were serially 2-fold diluted in MH broth at concentrations ranging from 200 μg/ml to 0.02 μg/ml and pipetted into 96-well microtiter plates (Greiner Bio, Kremsmünster, Austria). The inoculum was added to the eBD dilutions 1:1, and the bacteria were incubated in a humidified incubator (5% CO2) at 37°C for 24 h. MIC values were determined as the lowest concentration of eBD at which there was no visible bacterial growth.

[3] = system: Streptococcus equi subsp. zooepidemicus (4001); experiment: MIC assay, bacterial growth inhibition; assay type: cell-based; details: Gram-positive; Mueller-Hinton II broth, ~10^6 CFU/ml, 0 to 100 μg/ml eBD, 24 h, 37°C, 5% CO2; lowest concentration with no visible bacterial growth
Experimental: as §1, §2

Rhodococcus equi (3851) = experiment: MIC assay, bacterial growth inhibition; assay type: cell-based; details: Gram-positive; Mueller-Hinton II broth, ~10^6 CFU/ml, 0 to 100 μg/ml eBD, 24 h, 37°C, 5% CO2; lowest concentration with no visible bacterial growth
Experimental: as §1, §2

[4] = system: Streptococcus equi subsp. equi (3830); experiment: MIC assay, bacterial growth inhibition; assay type: cell-based; details: Gram-positive; Mueller-Hinton II broth, ~10^6 CFU/ml, 0 to 100 μg/ml eBD, 24 h, 37°C, 5% CO2; lowest concentration with no visible bacterial growth
Experimental: as §1, §2

[5] = system: Staphylococcus aureus (3939); experiment: MIC assay, bacterial growth inhibition; assay type: cell-based; details: Gram-positive; Mueller-Hinton II broth, ~10^6 CFU/ml, 0 to 100 μg/ml eBD, 24 h, 37°C, 5% CO2; lowest concentration with no visible bacterial growth
Experimental: as §1, §2

[6] = system: Bordetella bronchiseptica (3033); experiment: MIC assay, bacterial growth inhibition; assay type: cell-based; details: Gram-negative; Mueller-Hinton II broth, ~10^6 CFU/ml, 0 to 100 μg/ml eBD, 24 h, 37°C, 5% CO2; lowest concentration with no visible bacterial growth
Experimental: as §1, §2

[7] = system: EHV1 particles binding to RK13 cells; assay type: cell-based, equine herpesvirus type 1
[8] = system: equine polymorphonuclear (PMN) cells; experiment: CytoSelect cell migration (chemotaxis) assay; details: 0 to 10 μg/ml; 96-well Boyden chamber, 5-μm pores; RFU; three donor horses
[9] = system: EHV1 particles binding to EREC; assay type: cell-based, equine herpesvirus type 1
[10] = system: equine CD3+ T lymphocytes; experiment: CytoSelect cell migration (chemotaxis) assay; details: 0 to 10 μg/ml; 96-well Boyden chamber, 5-μm pores; RFU; three donor horses
[11] = system: equine influenza virus (A/equine/Kentucky/98, H3N8); assay type: cell-based
EIV = assay type: cell-based, equine influenza virus
[12] = system: equine CD172a+ monocytic cells; experiment: CytoSelect cell migration (chemotaxis) assay; details: 0 to 10 μg/ml, 96-well Boyden chamber
EHV1 RacL11 Δgp2 = assay type: cell-based, equine herpesvirus type 1
EHV1 = assay type: cell-based, equine herpesvirus type 1
EHV1 RacL11 = assay type: cell-based, equine herpesvirus type 1
EHV1 RacL11 ΔgM = assay type: cell-based, equine herpesvirus type 1

Row | Molecule | protection of cells from subsequent EHV1 infection (EHV1 (isolate 03P37)) | protection of cells from subsequent EAV infection [1] | MIC [2] [µg/mL] | MIC [3] [µg/mL] | MIC (Rhodococcus equi (3851)) [µg/mL] | MIC [4] [µg/mL] | MIC [5] [µg/mL] | MIC [6] [µg/mL] | percentage of RK13 cells with bound EHV1 particles [7] | concentration of maximal migration of equine PMN cells [8] [ng/mL] | number of EHV1 particles bound per EHV1-positive EREC [9] | percentage of EREC with bound EHV1 particles [9] | concentration of maximal migration of equine T lymphocytes [10] [µg/mL] | protection of cells from subsequent EIV infection [11] | EIV entry in EREC (EIV) | EIV infectivity in EREC (EIV) | chemotaxis of equine monocytic cells [12] | average EHV1 plaque diameter (EHV1 (isolate 03P37)) | increase in EHV1 infection in RK13 cells (number of plaques and plaque diameter) (EHV1 (isolate 03P37)) [fold] | formation of EAV plaques in RK13 cells [1] | other results
1 | Nc1nc(O)c2ncn(COC(CO)CO)c2n1 [ganciclovir, reference compound] | – | – | – | – | – | – | – | – | – | – | – | – | – | – | – | – | – | – | – | – | formation and spread of EHV1 plaques (EHV1 (isolate 03P37)): almost completely blocked
2 | heparin [reference compound] | – | – | – | – | – | – | – | – | – | – | – | – | – | – | – | – | – | – | – | – | EHV1 final plaque diameter in RK13 cells (EHV1 (isolate 03P37)): did not alter; EHV1 plaque formation in RK13 cells (EHV1 (isolate 03P37)): inhibited
3 | MRAPYFLLLTLCLFCCQMSSGVGYLTGLGHRSDHYICARSGGTCHFSSCPLFTKIEGTCYGGKAKCCL (also: bicyclic or more (positions not given here)) [eBD1, chemically synthesized equine β-defensin, named according to its human homolog] | failed to protect | failed to protect | >100 | >100 | >100 | >100 | >100 | >100 | 0.78% ± 0.76% | 1 | did not significantly differ | 17% ± 6% | 1 | failed to protect | no effect on EIV entry | did not alter EIV infectivity | failed to induce | – | – | – | –
4 | MRILHFLLAFLIVFLLPVPGFTAGIETSFSCSQNGGFCISPKCLPGSKQIGTCILPGSKCCRKK (also: bicyclic or more (positions not given here)) [eBD2, chemically synthesized equine β-defensin, named according to its human homolog] | failed to protect | failed to protect | 25 | >100 | >100 | >100 | >100 | 100 | 0.86% ± 0.97% | – | did not significantly differ | 17% ± 5% | 1 | failed to protect | no effect on EIV entry | did not alter EIV infectivity | failed to induce | doubling | 3.5 | decreased | virus particles bound per positive RK13 cell, relative to eBD1 or control pretreatment [7]: up to 2 fold; infectivity of RacL11 Δgp2 in RK13 cells (EHV1 RacL11 Δgp2): increase in infectivity; formation of EIV plaques in MDCK cells [11]: decreased; EIV infection of EREC (EIV): diminishing subsequent infection of EREC; EHV1 infection of EREC (EHV1): not able to infect EREC more efficiently; infectivity of parental RacL11 strain in RK13 cells (EHV1 RacL11): enhanced; infectivity of RacL11 ΔgM in RK13 cells (EHV1 RacL11 ΔgM): diminished
5 | MRIHFLLFALLFLFLMPVPGNGGIINMLQKSYCKIRKGRCALLGCLPKEEQIGSCSVSGRKCCRKKK (also: bicyclic or more (positions not given here)) [eBD3, chemically synthesized equine β-defensin, named according to its human homolog] | failed to protect | failed to protect | 25 | >100 | 25 | 100 | >100 | 100 | 1.26% ± 1.34% | 1 | doubled | 36% ± 8% | 1 | failed to protect | no effect on EIV entry | did not alter EIV infectivity | – | doubling | 3.5 | decreased | EHV1 infectivity (EHV1 (isolate 03P37)): no effect; increase in susceptibility of RK13 cells to EHV1 (number of plaques) (EHV1 (isolate 03P37)): 1.5 fold; EAV infectivity [1]: no effect; virus particles bound per positive RK13 cell, relative to eBD1 or control pretreatment [7]: up to 2 fold; EIV infection of MDCK cells [11]: almost completely preventing infection; EIV infectivity [11]: decreased; formation of EIV plaques in MDCK cells [11]: decreased; EIV infection of EREC (EIV): diminishing subsequent infection of EREC; concentration of maximal migration of equine monocytic cells ([12]; 5-μm pores, RFU, three donor horses, P < 0.05): 1 µg/mL; EHV1 infection of EREC (EHV1): not able to infect EREC more efficiently
